In PubChem BioAssay AID1213 (NMMLSC, 2008):
Inconclusive results are not listed. The source made the active and inactive calls.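 How the source made its calls: active means compound giving calcium release at least equal to the estrogen response, or cutting estrogen-driven calcium release by 60% or more; inconclusive means compound glowing brighter than the detergent maximum; inactive means the rest.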

molecular target: G-protein coupled estrogen receptor 1 (Homo sapiens) (UniProt Q99527); assay: GPER-mediated calcium mobilization modulators – HL-60 cells, Indo-1 fluorescence, 10 µM, primary screen (AID 1213); details: Indo-1 calcium mobilization, at 10 µM, stronger effect = higher value

SMILES | calcium mobilization (agonist)
CC(=O)c1ccc2c(c1)C1C(Cl)C(Sc3ccccc3[N+](=O)[O-])CC1C(c1ccccc1)N2 (centres undefined) | 0% (inactive)
O=C(O)c1cc(Cl)c2c(c1)[C@@H]1C=CC[C@@H]1[C@H](c1ccc(S(=O)(=O)N3CCOCC3)cc1)N2 | 0% (inactive)
O=C(Cc1cccs1)Nc1ccc(S(=O)(=O)Nc2ncccn2)cc1 | 0% (inactive)
Cc1cc(C)c2c(c1)[C@@H]1C=CC[C@@H]1[C@H](c1ccc(S(=O)(=O)N3CCOCC3)cc1)N2 | 0%
Fc1ccc2c(c1)[C@H]1OCC[C@H]1[C@@H](c1ccco1)N2 | 100%
O=C1NC(c2ccc(Br)cc2)Nc2sc3c(c21)CCC3 (centres undefined) | 50% (inactive)
Cc1nn(-c2ccccc2)c(/N=C/c2ccc(O)cc2)c1-c1ccccc1 | 0% (inactive)
CCOC(=O)c1ccc2c(c1)C1C=CCC1C(C(=O)O)N2 (centres undefined) | 0% (inactive)
Cc1cc([N+](=O)[O-])c2c(c1C)C1C=CCC1C(c1ccccn1)N2 (centres undefined) | 0% (inactive)
O=C(O)C1Nc2c(O)cccc2C2C=CCC12 (centres undefined) | 50% (inactive)
CC(=O)c1ccc2c(c1)C1C=CCC1C(c1ccc(S(=O)(=O)N3CCOCC3)cc1)N2 (centres undefined) | 100%
N=C1C(c2nc3ccccc3[nH]2)=C(O)CN1c1ccc(CC(=O)O)cc1 | 0% (inactive)
O=C(O)c1ccc(NS(=O)(=O)c2ccc3c(c2)C2C=CCC2C(c2ccccc2F)N3)cc1 (centres undefined) | 0% (inactive)
CCC(=O)Oc1ccc(C(CC)C(CC)c2ccc(OC(=O)CC)cc2)cc1 (centres undefined) | 0% (inactive)
CCC(=O)Oc1ccc(/C(CC)=C(\CC)c2ccc(OC(=O)CC)cc2)cc1 | 0% (inactive)
O=C(c1cc2ncc(Br)cn2n1)N1CCN(C(=O)c2ccco2)CC1 | 0% (inactive)
O=C(O)c1ccc2c(c1)C1C=CCC1C(c1cc3c(cc1Br)OCO3)N2 (centres undefined) | 100%
O=C(O)c1ccc(Cl)c2c1C1C=CCC1C(c1ccccn1)N2 (centres undefined) | 50% (inactive)
CCn1nnc(NC(=O)CSc2ccc(Cl)cc2)n1 | 0% (inactive)
CCNC(=O)c1ccc2c(c1)C1C3CCC(C3)C1C(c1ccccc1)N2 (centres undefined) | 100%
COc1cccc(NS(=O)(=O)c2ccc3c(c2)C2C=CCC2C(c2ccc(C(=O)O)cc2)N3)c1 (centres undefined) | 0%
O=C(COC(=O)CCC(=O)c1cccs1)NCc1ccco1 | 0% (inactive)
Cc1cc(C(=O)Nc2sc3c(c2C#N)CCC3)no1 | 0% (inactive)
Cc1cc(C)cc(OCC(=O)Nc2ccc(N3CCCC3)cc2)c1 | 0% (inactive)
CN(C)C(=O)c1ccc2c(c1)C1C3CCC(C3)C1C(c1ccccc1)N2 (centres undefined) | 100%

SMILES | calcium mobilization (agonist)
COc1cccc2c1NC(C(=O)O)C1CC=CC21 (centres undefined) | 0% (inactive)
CC(=O)c1ccc2c(c1)C1C=CCC1C(C(=O)O)N2 (centres undefined) | 0% (inactive)
NS(=O)(=O)c1ccc2c(c1)C1C=CCC1C(C1CC=CCC1)N2 (centres undefined) | 0% (inactive)
Cc1cc(C)c2c(c1)NC(c1cc3c(cc1Br)OCO3)C1CC=CC21 (centres undefined) | 50% (inactive)
Nc1ncnc2c1ncn2C1CCC(CO)C(O)C1 (centres undefined) | 0% (inactive)
O=C(O)C1Nc2c(O)cc(Cl)c([N+](=O)[O-])c2C2C=CCC12 (centres undefined) | 0% (inactive)
O=S(=O)(NCCc1csc(-c2cccnc2)n1)c1ccc(Cl)s1 | 100%
Cc1cc(-c2nn3c(-c4ccccc4)nnc3s2)c2ccccc2n1 | 0% (inactive)
O=C(OC1CCCCC1)c1ccc2c(c1)C1C=CCC1C(C(=O)O)N2 (centres undefined) | 0% (inactive)
C[C@]12CC[C@@H]3c4ccc(O)cc4[C@@H](O)C[C@H]3[C@@H]1CC[C@@H]2O | 0% (inactive)
Cc1nnc(SCC(=O)NC(=O)NCc2ccco2)n1Cc1ccccc1 | 0% (inactive)
Fc1ccc2c(c1)C1C=CCC1C(c1cc3c(cc1Br)OCO3)N2 (centres undefined) | 100%
CC(=O)N1c2ccc(Cl)cc2C2C=CCC2C1c1cccc2ccccc12 (centres undefined) | 100%
COc1ccc(CNC(=O)c2cc(-c3cccs3)on2)cc1 | 0% (inactive)
CC(=O)Nc1ccc(OC(=O)CC2SC(=O)NC2=O)cc1 (centres undefined) | 0% (inactive)
CCc1ccc(-c2nn(-c3ccccc3)cc2CSC(=N)N)cc1 | 50% (inactive)
O=C(O)C1Nc2c(C(=O)N3CCOCC3)cccc2C2C=CCC12 (centres undefined) | 0% (inactive)
O=C(NC1CC1)c1ccc2c(c1)C1C3CCC(C3)C1C(c1ccccc1)N2 (centres undefined) | 100%
CC(C)c1ccc2c(c1)[C@H]1OCC[C@H]1[C@@H](c1cccs1)N2 | 0% (inactive)
COc1ccc(C(=O)N/N=C(\C)c2ccc3c(c2)C2C=CCC2C(c2ccccc2)N3)cc1 (centres undefined) | 50% (inactive)
COc1ccc(OC)c(C2Nc3c(Cl)ccc(C(=O)O)c3C3C=CCC32)c1 (centres undefined) | 50% (inactive)
FC(F)(F)c1ccc2c(c1)C1C=CCC1C(c1ccncc1)N2 (centres undefined) | 0% (inactive)
CC(C)C1Nc2c(O)cc(Cl)c([N+](=O)[O-])c2C2C=CCC21 (centres undefined) | 100%
Cc1ccc2c(c1Cl)NC(C(=O)O)C1CC(Sc3ccccc3[N+](=O)[O-])C(Cl)C21 (centres undefined) | 0%
Cn1ccnc1SCC(=O)Nc1ccc2nc(SCC(=O)NC3CC3)sc2c1 | 0% (inactive)

SMILES | calcium mobilization (agonist)
Cc1ccc2c(c1C)NC(C(=O)O)C1CC=CC21 (centres undefined) | 0%
CCc1nc2sc3ccccc3c(=O)c2c(=O)n1Cc1ccco1 | 0% (inactive)
COc1ccc(NC(=O)C(c2ccccc2)N(C)C(=O)c2ccc(=O)[nH]c2)cc1 (centres undefined) | 0% (inactive)
O=C(O)c1ccc2c(c1)C1C(Cl)C(Sc3ccccc3[N+](=O)[O-])CC1C(c1cccc([N+](=O)[O-])c1)N2 (centres undefined) | 0%
CC(C)C1Nc2ccc(C(=O)O)cc2C2C=CCC21 (centres undefined) | 0%
COc1cccc(C2Nc3c(F)cc(Br)cc3C3C=CCC32)c1OC (centres undefined) | 0% (inactive)
Cc1ccc2c(c1)C1C=CCC1C(C(=O)O)N2 (centres undefined) | 0% (inactive)
Oc1ccc(-c2nc3ccc4ccccc4c3c3c2CCC3)cc1O | 0% (inactive)
CCCCCCNC(=O)c1cc(-c2ccco2)nc2ccccc12 | 0% (inactive)
O=C(O)c1ccc2c(c1)[C@@H]1C=CC[C@@H]1[C@H](c1ccccn1)N2 | 0% (inactive)
CCCC1Nc2ccc(C(=O)O)cc2C2C=CCC12 (centres undefined) | 0% (inactive)
CC(C)C1Nc2ccc(S(N)(=O)=O)cc2C2C=CCC21 (centres undefined) | 0% (inactive)
Cc1c(Cl)cccc1NS(=O)(=O)c1ccc2c(c1)C1C=CCC1C(c1ccc(C(=O)O)cc1)N2 (centres undefined) | 0%
CC(C)(C)NC(=O)c1ccc2c(c1)C1C3CCC(C3)C1C(c1ccccc1)N2 (centres undefined) | 100%
CCCCOC(=O)c1c(C)oc2ccc(NS(=O)(=O)c3ccc4c5c(cccc35)C(=O)N4)cc12 | 0% (inactive)
Oc1ccc(-c2nc(-c3ccc(O)c(O)c3)cs2)cc1 | 0% (inactive)
CC(=O)c1ccc2c(c1)C1C=CCC1C(c1ccncc1)N2 (centres undefined) | 100%
CCc1ccc2c(c1)[C@H]1OCC[C@H]1[C@@H](c1cccs1)N2 | 50% (inactive)
C[C@]12CC[C@@H]3c4ccc(O)cc4C(=O)C[C@H]3[C@@H]1CC[C@@H]2O | 0% (inactive)
Cc1ccc2c(c1)[C@H]1OCC[C@H]1[C@@H](c1ccncc1)N2 | 0% (inactive)
COc1ccc2c(c1)C1C=CCC1C(c1cc3c(cc1Br)OCO3)N2 (centres undefined) | 100%
COc1cc(C2Nc3c(F)cccc3C3C=CCC32)cc(Br)c1OC (centres undefined) | 0% (inactive)
C[C@H]1CCC[C@@H](O)CCC/C=C/c2cc(O)cc(O)c2C(=O)O1 | 50% (inactive)
O=C(Nc1cc(C(F)(F)F)ccc1N1CCOCC1)C1Cc2ccccc2CN1C(=O)c1ccco1 (centres undefined) | 0% (inactive)
CCCNC(=O)c1ccc2c(c1)C1C3CCC(C3)C1C(c1ccccc1)N2 (centres undefined) | 100%

same assay, conditions: Indo-1 calcium mobilization, measured here: antagonist mode response, at 10 µM

SMILES | inhibition of estrogen-induced calcium mobilization (higher = more inhibition) [%]
Cc1cc(C)c2c(c1)[C@@H]1C=CC[C@@H]1[C@H](c1ccc(S(=O)(=O)N3CCOCC3)cc1)N2 | 100
O=C1NC(c2ccc(Br)cc2)Nc2sc3c(c21)CCC3 (centres undefined) | 50
O=C(O)c1ccc(NS(=O)(=O)c2ccc3c(c2)C2C=CCC2C(c2ccccc2F)N3)cc1 (centres undefined) | 50
CCC(=O)Oc1ccc(/C(CC)=C(\CC)c2ccc(OC(=O)CC)cc2)cc1 | 50
COc1cccc(NS(=O)(=O)c2ccc3c(c2)C2C=CCC2C(c2ccc(C(=O)O)cc2)N3)c1 (centres undefined) | 100
COc1ccc(C(=O)N/N=C(\C)c2ccc3c(c2)C2C=CCC2C(c2ccccc2)N3)cc1 (centres undefined) | 50
FC(F)(F)c1ccc2c(c1)C1C=CCC1C(c1ccncc1)N2 (centres undefined) | 50
Cc1ccc2c(c1Cl)NC(C(=O)O)C1CC(Sc3ccccc3[N+](=O)[O-])C(Cl)C21 (centres undefined) | 100
Cc1ccc2c(c1C)NC(C(=O)O)C1CC=CC21 (centres undefined) | 100
O=C(O)c1ccc2c(c1)C1C(Cl)C(Sc3ccccc3[N+](=O)[O-])CC1C(c1cccc([N+](=O)[O-])c1)N2 (centres undefined) | 100
CC(C)C1Nc2ccc(C(=O)O)cc2C2C=CCC21 (centres undefined) | 100
Cc1ccc2c(c1)C1C=CCC1C(C(=O)O)N2 (centres undefined) | 50
Cc1c(Cl)cccc1NS(=O)(=O)c1ccc2c(c1)C1C=CCC1C(c1ccc(C(=O)O)cc1)N2 (centres undefined) | 100
Cc1ccc2c(c1)[C@H]1OCC[C@H]1[C@@H](c1ccncc1)N2 | 50
